In this assay the test system is clot lysis (fibrinolysis) in diluted human citrated plasma, tPA-induced. As to the kind of experiment: Plasma-based clot lysis assay (5%). To be noted: human citrated platelet-poor plasma 5%, fibrinogen 3 μM, CaCl2 10 mM, tPA 0.2 nM, 37° C., OD at 405 nm. Type of assay: biochemical. Put shortly:
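Compounds added to 5% platelet-poor citrated human plasma with 3 μM fibrinogen in 20 mM HEPES, 150 mM NaCl, 0.01% Brij, pH 7. Clotting and lysis started with 10 mM CaCl2 and 0.2 nM tPA at 37° C. IC50 derived by comparing time courses with a blank control reaction.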

Here are results for twelve compounds from US10118930B2, “Piperidinylpyrazolopyrimidinones and their use” (BAYER PHARMA AKTIENGESELLSCHAFT, priority 2015, dated 2018).

Structures can show the parent of a compound that is named as a salt.

Consider `COc1ccc(-c2noc(-c3cnn4c(C5CCNCC5)cc(=O)[nH]c34)n2)cc1Cl` [Example 142, 3-[3-(3-Chloro-4-methoxyphenyl)-1,2,4-oxadiazol-5-yl]-7-(piperidin-4-yl)pyrazolo[1,5-a]pyrimidin-5(4H)-one hydrochloride], for which the IC50 (usually the concentration needed to halve the response being measured) stood at 41 nM.
The figure for `O=c1cc(C2CCNCC2)n2ncc(-c3nc(-c4cccc(Cl)c4Cl)no3)c2[nH]1` [Example 143, 3-[3-(2,3-Dichlorophenyl)-1,2,4-oxadiazol-5-yl]-7-(piperidin-4-yl)pyrazolo[1,5-a]pyrimidin-5 (4H)-one hydrochloride] is 41 nM; for `O=c1cc(C2CCNCC2)n2ncc(-c3nc(-c4cc(Cl)ccc4C(F)(F)F)no3)c2[nH]1` [Example 145, 3-{3-[5-Chloro-2-(trifluoromethyl)phenyl]-1,2,4-oxadiazol-5-yl}-7-(piperidin-4-yl)pyrazolo[1,5-a]pyrimidin-5(4H)-one hydrochloride] it is 28 nM; for `O=c1cc(C2CCNCC2)n2ncc(-c3nc(-c4cccc(C(F)(F)F)n4)no3)c2[nH]1` [Example 146, 7-(Piperidin-4-yl)-3-{3-[6-(trifluoromethyl)pyridin-2-yl]-1,2,4-oxadiazol-5-yl}pyrazolo[1,5-a]pyrimidin-5(4H)-one hydrochloride] it is 35 nM.
`O=c1cc(C2CCNCC2)n2ncc(-c3nc(-c4cc(C(F)(F)F)ccn4)no3)c2[nH]1` [Example 147, 7-(piperidin-4-yl)-3-{3-[4-(trifluoromethyl)pyridin-2-yl]-1,2,4-oxadiazol-5-yl}pyrazolo[1,5-a]pyrimidin-5(4H)-one hydrochloride] displayed an IC50 of 38 nM. This IC50 and that of the compound before are within 1.5-fold of each other.
Consider `O=c1cc(C2CCNCC2)n2ncc(-c3nc(-c4cccnc4Cl)no3)c2[nH]1` [Example 148, 3-[3-(2-Chloropyridin-3-yl)-1,2,4-oxadiazol-5-yl]-7-(piperidin-4-yl)pyrazolo[1,5-a]pyrimidin-5(4H)-one hydrochloride], for which the IC50 worked out at 43 nM.
For `O=c1cc(C2CCNCC2)n2ncc(-c3nc(-c4ccc(OC(F)(F)F)c(Cl)c4)no3)c2[nH]1` [Example 149, 3-{3-[3-Chloro-4-(trifluoromethoxy)phenyl]-1,2,4-oxadiazol-5-yl}-7-(piperidin-4-yl)pyrazolo[1,5-a]pyrimidin-5(4H)-one hydrochloride], it took 100 nM to reach half-maximal inhibition (IC50).
`O=c1cc(C2CCNCC2)n2ncc(-c3nc(-c4c(Cl)cc(C(F)(F)F)cc4Cl)no3)c2[nH]1` [Example 150, 3-{3-[2,6-Dichloro-4-(trifluoromethyl)phenyl]-1,2,4-oxadiazol-5-yl}-7-(piperidin-4-yl)pyrazolo[1,5-a]pyrimidin-5(4H)-one hydrochloride] registered an IC50 of 45 nM.
For `O=c1cc(C2CCNCC2)n2ncc(-c3nc(-c4cc(Cl)cc(Cl)c4)no3)c2[nH]1` [Example 151, 3-[3-(3,5-Dichlorophenyl)-1,2,4-oxadiazol-5-yl]-7-(piperidin-4-yl)pyrazolo[1,5-a]pyrimidin-5 (4H)-one hydrochloride], the IC50 is 44 nM.
Take `O=c1cc(C2CCNCC2)n2ncc(-c3nc(-c4ccc(C(F)(F)F)cc4C(F)(F)F)no3)c2[nH]1` [Example 152, 3-{3-[2,4-Bis(trifluoromethyl)phenyl]-1,2,4-oxadiazol-5-yl}-7-(piperidin-4-yl)pyrazolo[1,5-a]pyrimidin-5(4H)-one hydrochloride]: the IC50 was 43 nM.
In turn, `COc1ccc(-c2noc(-c3cnn4c(C5CCNCC5)cc(=O)[nH]c34)n2)c(C)c1` [Example 154, 3-[3-(4-methoxy-2-methylphenyl)-1,2,4-oxadiazol-5-yl]-7-(piperidin-4-yl)pyrazolo[1,5-a]pyrimidin-5(4H)-one hydrochloride] displayed an IC50 of 24 nM. This IC50 is about 1.8-fold lower than that of the compound before.
`O=c1cc(C2CCNCC2)n2ncc(-c3nc(-c4ccc(Cl)cc4)no3)c2[nH]1` [Example 157, 3-[3-(4-chlorophenyl)-1,2,4-oxadiazol-5-yl]-7-(piperidin-4-yl)pyrazolo[1,5-a]pyrimidin-5 (4H)-one hydrochloride]: the concentration for half-maximal inhibition (IC50) came out at 56 nM. This IC50 is about 2.3-fold higher than that of the compound before.
